From patent US12162855B2, “Tetrahydroquinolino derivatives for the treatment of metastatic and chemoresistant cancers” (THE TRUSTEES OF PRINCETON UNIVERSITY, priority 2018, dated 2024)
pIC50: −log10 of the molar value. Where two headings read alike, the source gives them in different places.

Legend:
[1] = biological target: T1, ALDH1a3 (Homo sapiens, UniProt P47895); assay: ALDEFLUOR assay in SUM159-M1a-Aldh1a3 cells (flow cytometry); format: cell-based; conditions: for Percent of Cells Positive for ALDEFLUOR at 100 nM / inhibition at 0.1 µM: SUM159-M1a-Aldh1a3 cells, compound at 100 nM; for inhibition at 0.1 µM: read-out: Inhibitory Activity at 100 nM (%); for inhibition of ALDH1a3 activity (FIG. 1A): compounds at 100 nM; for lowest concentration at which inhibitory activity detected ([inh-min], FIG. 1B): threshold at lower bound of two standard deviations of control samples
T1 construct: lentiviral vectors containing either the vector backbone or full-length human Aldh1a3; expressed in transfected cells; host or cells: SUM159-M1a (A1) and SUM159 (A7) breast cancer cells, lentiviral pLex vector, puromycin selection
T1 sequence (P47895 1-512): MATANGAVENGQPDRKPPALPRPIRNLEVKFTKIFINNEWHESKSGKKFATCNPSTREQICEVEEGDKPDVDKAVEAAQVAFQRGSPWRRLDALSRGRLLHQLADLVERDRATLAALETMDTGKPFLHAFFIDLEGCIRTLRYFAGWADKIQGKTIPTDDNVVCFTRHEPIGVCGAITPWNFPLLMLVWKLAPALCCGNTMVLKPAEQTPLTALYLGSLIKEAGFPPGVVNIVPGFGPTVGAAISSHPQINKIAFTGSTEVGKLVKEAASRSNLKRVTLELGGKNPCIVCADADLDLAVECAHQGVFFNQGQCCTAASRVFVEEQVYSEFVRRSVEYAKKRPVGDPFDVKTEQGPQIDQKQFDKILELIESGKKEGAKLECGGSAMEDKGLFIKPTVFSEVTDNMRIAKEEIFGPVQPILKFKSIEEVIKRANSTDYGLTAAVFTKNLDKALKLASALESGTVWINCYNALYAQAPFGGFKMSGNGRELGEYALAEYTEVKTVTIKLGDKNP
Description: (§1) Cells were counted, centrifuged and resuspended at 1,000,000 cells/mL in ALDEFLUOR™ buffer (Stemcell Technologies). ALDEFLUOR™ substrate (Stemcell Technologies, 1:200) and test compound or 1 mM DEAB were added to cell suspension and incubated at 37° C. for 45 minutes with vortexing every 15 minutes. Cells were centrifuged and resuspended in ALDEFLUOR™ buffer with DAPI at 5 μg/mL. Samples were analyzed with the BD LSR2 flow cytometry platform. Gating was performed using DEAB as a negative control.
Gating for background fluorescence was performed using 1 millimolar DEAB as a negative control.
The [inh-min] threshold was set at the lower bound of two standard deviations of control samples, while the IC50 threshold was set at 50% of the average of control samples.
High activity was gated at the 99th percentile of cells at a MBE1.5 concentration of 10 nanomolar. The [inh-min] threshold was set at the lower bound of two standard deviations of control samples.
An ALDEFLUOR™ assay was also used to assess the relative activity of several compounds described herein against SUM159-M1a-Aldh1a3 cells. The activity of several compounds in the assay at a concentration of 100 nM is reported in Table 1, along with the chemical structure and compound name associated with each compound.

[2] = biological target: T1, ALDH1a3; assay: ALDEFLUOR assay in MCF7 cells transduced with human Aldh1a3; format: cell-based
Description: (§2) The coding sequences of Aldh1a1, Aldh1a2, Aldh1a3 and Aldh3a1 were cloned from cDNA made from pooled human reference RNA samples. Cloned sequences flanked by Age1 and Xho1 restriction sites were inserted into the pLex lentiviral plasmid. Clones were sequenced and compared against NCBI expressed sequence tags (ESTs) for accuracy. Viral production of each enzyme was performed by transfection into the 293T packaging cell line using PEI along with PsPax2 and VSVG packaging vectors. Viruses were collected and filtered at 0.45 μm, then cells were transduced using polybrene (8 μg/mL) for 12 hours, followed by culture with 1 μg/mL puromycin for the duration of experiments. All viral transduction and selection was performed on a cell population-wide basis.
as §1
ALDH isoforms 1a1, 1a2, 1a3 and 3a1 were expressed in MCF7 or SUM159 cells, which were subsequently used in an ALDEFLUOR™ assay.

[3] = biological target: T1, ALDH1a3; assay: ALDEFLUOR assay in 293T cells transiently transfected with human Aldh1a3; format: cell-based; conditions: 293T cells transfected with human Aldh1a3
Description: as §2, §1

[4] = tested on: Sum-159-M1a-Aldh1a3 cells; assay: Lung metastasis xenograft, Sum-159-M1a-Aldh1a3 cells by tail-vein injection; format: in vivo, mouse; conditions: 25 mg/kg daily with paclitaxel 12.5 mg/kg every other day, 12 days
Description: In another xenograft experiment, mice were injected with Sum-159-M1a-Aldh1a3 cells via tail-vein injection, and were randomized following injection. Mice were treated with MBE1.5 (25 mg/kg daily) or vehicle, and paclitaxel (12.5 mg/kg every other day) for twelve days. Lung metastasis progression was tracked by intravital bioluminescence.

[5] = biological target: T2, Aldh3a1 (Homo sapiens, UniProt P30838); assay: ALDEFLUOR assay in MCF7 cells transduced with human Aldh3a1; format: cell-based; conditions: concentrations below 10 μM
T2 construct: expressed in transfected cells; host or cells: MCF7, lentiviral pLex vector
T2 sequence (P30838 1-453): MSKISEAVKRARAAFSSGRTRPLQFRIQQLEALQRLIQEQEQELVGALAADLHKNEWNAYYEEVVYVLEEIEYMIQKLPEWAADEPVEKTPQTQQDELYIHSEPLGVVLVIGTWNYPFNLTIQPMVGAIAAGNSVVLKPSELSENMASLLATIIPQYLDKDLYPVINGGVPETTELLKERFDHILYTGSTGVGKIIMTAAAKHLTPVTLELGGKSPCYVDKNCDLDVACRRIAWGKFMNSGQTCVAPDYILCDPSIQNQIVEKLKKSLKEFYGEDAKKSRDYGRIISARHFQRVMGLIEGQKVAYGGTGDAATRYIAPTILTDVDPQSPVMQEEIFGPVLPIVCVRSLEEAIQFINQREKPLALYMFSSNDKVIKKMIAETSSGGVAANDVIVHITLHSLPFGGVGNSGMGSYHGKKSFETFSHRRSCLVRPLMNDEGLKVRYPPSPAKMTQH
Description: as §2, with “[…].” for “Viral production of each enzyme was performed by transfection into the 293T packaging cell line using PEI along with PsPax2 and VSVG packaging vectors.”
as §1

SMILES | Percent of Cells Positive for ALDEFLUOR at 100 nM [1] [%] | inhibition at 0.1 µM [1] [%] | inhibition of ALDH1a3 activity (FIG. 1A) [1] | pIC50 ([1]; dose titration, IC50 threshold at 50% of average of control samples, read-out: IC50 (percentage of ALDEFLUOR-positive cells, FIG. 1B)) | inhibition of highly ALDH1a3-active cells (high ALDH percentage, FIG. 1C) ([1]; dose titration, high activity gated at 99th percentile at 10 nanomolar MBE1.5) | lowest concentration at which inhibitory activity detected ([inh-min], FIG. 1B) [1] [nM] | isoform specificity, percentage of ALDEFLUOR-positive MCF7 cells (FIG. 13B) ([2]; MCF7 cells expressing ALDH 1a1, 1a2, 1a3 or 3a1) | inhibition of Aldh1a3 activity (FIG. 2B) [3] | mouse survival, Kaplan-Meier (FIG. 16B) [4] | pIC50 [1] | inhibition of Aldh3a1 activity (FIG. 2A) [5] | inhibition of Aldh1a3 activity (FIG. 2A) ([2]; MCF7 cells)
CCc1ccccc1C(=O)Nc1cc2c(cc1F)NC(=O)CC2 [MBE1.5, 2-ethyl-N-(7-fluoro-2-oxo-1,2,3,4-tetrahydroquinolin-6-yl)benzamide] | 0.03 | 100 | high-affinity compounds for the inhibition of ALDH1a3 activity | 8.00 to 8.10 | more adept at inhibiting highly ALDH1a3-active cells than MBE1 | 2 | specifically inhibits ALDH1a3 at concentrations below 10 μM | effective at inhibiting Aldh1a3 activity | extended survival in mice with late-stage established breast cancer lung metastasis | – | – | –
CCc1cnccc1C(=O)Nc1cc2c(cc1F)NC(=O)CC2 [MBE1, 3-ethyl-N-(7-fluoro-2-oxo-1,2,3,4-tetrahydroquinolin-6-yl)isonicotinamide] | 0.73 | 99 | high-affinity compounds for the inhibition of ALDH1a3 activity | – | – | 2 | – | – | – | 8.00 to 8.10 | does not inhibit | effective at inhibiting Aldh1a3 activity
